Assays:
Assay in all cases: KINOMEscan binding assay
Details in all cases: read-out: % Ctrl @ 10000 nM
[1] = molecular target: LCK (Homo sapiens, UniProt P06239)
[2] = molecular target: PFPK5 P. falciparum (Plasmodium falciparum, UniProt P61075)
[3] = molecular target: RIOK1 (Homo sapiens, UniProt Q9BRS2)
[4] = molecular target: ACVR1 (Homo sapiens, UniProt Q04771)
[5] = molecular target: PIK3C2B (Homo sapiens, UniProt O00750)
[6] = molecular target: T1, TYRO3 (Homo sapiens, UniProt Q06418)
T1 construct: purchased DiscoveRx (KINOMEscan, LeadHunter Discovery services)

[7] = molecular target: PLK4 (Homo sapiens, UniProt O00444)
[8] = molecular target: CAMK4 (Homo sapiens, UniProt Q16566)
[9] = molecular target: PIP5K2C (Homo sapiens, UniProt Q8TBX8)
PIP5K2C, sequence (Q8TBX8 whole entry): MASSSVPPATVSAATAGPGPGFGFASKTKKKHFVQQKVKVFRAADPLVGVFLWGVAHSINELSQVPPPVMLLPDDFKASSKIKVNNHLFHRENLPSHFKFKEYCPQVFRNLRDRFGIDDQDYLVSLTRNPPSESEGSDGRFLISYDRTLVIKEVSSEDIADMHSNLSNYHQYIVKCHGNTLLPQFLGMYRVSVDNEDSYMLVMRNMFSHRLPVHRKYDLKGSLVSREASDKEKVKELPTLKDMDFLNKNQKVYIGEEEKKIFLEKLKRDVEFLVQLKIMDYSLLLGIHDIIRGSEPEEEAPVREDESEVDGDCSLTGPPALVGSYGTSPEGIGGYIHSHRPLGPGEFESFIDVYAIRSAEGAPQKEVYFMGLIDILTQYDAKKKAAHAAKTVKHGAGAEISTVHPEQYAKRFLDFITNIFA

[10] = molecular target: T2, VEGFR2 (Homo sapiens, UniProt P35968)
T2 construct: purchased DiscoveRx (KINOMEscan, LeadHunter Discovery services)
T2 sequence (P35968 20-1356): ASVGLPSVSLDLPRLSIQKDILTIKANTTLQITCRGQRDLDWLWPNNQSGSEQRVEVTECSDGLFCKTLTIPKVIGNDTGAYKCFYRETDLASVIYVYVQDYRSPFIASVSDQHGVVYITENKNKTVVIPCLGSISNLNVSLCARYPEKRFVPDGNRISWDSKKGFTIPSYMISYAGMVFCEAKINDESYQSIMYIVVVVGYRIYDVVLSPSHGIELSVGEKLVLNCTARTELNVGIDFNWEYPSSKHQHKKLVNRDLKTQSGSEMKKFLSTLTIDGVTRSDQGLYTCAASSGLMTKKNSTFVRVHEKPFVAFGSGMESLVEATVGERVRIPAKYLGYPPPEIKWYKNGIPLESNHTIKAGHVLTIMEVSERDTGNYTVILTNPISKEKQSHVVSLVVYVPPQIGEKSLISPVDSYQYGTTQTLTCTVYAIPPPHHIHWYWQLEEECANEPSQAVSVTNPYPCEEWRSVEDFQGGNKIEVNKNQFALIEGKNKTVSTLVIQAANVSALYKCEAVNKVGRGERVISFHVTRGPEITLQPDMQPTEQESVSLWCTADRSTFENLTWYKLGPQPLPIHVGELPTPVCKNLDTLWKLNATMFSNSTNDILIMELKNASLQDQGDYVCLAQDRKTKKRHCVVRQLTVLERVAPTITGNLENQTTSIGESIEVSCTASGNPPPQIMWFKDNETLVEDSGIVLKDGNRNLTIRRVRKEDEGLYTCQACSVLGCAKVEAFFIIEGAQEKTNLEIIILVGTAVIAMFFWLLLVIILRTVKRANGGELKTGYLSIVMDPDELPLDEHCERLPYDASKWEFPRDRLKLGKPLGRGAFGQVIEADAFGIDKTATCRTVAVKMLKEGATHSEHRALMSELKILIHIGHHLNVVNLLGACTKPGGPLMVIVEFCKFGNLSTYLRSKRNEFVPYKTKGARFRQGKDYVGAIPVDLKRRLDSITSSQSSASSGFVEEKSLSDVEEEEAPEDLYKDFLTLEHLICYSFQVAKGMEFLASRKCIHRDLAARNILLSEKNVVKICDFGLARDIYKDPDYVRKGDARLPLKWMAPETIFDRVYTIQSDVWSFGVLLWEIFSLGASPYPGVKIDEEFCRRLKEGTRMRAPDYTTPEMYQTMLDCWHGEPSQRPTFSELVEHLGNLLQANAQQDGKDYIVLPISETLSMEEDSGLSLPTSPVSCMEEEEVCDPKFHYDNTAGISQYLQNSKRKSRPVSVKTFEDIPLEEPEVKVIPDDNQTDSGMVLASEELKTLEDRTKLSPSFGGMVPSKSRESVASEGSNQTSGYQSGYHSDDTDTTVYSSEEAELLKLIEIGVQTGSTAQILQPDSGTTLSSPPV

[11] = molecular target: CDK4-cyclinD1 (Homo sapiens, UniProt P11802)
[12] = molecular target: PCTK1 (Homo sapiens, UniProt Q00536)
PCTK1, sequence (Q00536 whole entry): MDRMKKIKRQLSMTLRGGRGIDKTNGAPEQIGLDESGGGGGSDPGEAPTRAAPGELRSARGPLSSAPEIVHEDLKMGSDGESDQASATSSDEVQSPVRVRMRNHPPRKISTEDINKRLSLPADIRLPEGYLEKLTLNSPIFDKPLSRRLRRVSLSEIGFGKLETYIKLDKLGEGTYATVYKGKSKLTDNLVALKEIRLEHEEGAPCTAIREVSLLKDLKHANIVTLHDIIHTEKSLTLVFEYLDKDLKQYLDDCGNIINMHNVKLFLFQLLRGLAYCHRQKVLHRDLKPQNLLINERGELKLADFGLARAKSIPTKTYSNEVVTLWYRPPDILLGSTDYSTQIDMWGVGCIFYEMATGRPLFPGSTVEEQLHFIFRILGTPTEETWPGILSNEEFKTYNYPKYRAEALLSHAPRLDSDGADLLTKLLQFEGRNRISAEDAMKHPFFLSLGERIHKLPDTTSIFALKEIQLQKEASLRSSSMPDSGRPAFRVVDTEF

[13] = molecular target: T3, MAP4K3 (Homo sapiens, UniProt Q8IVH8)
T3 construct: T7 phage fusion (most assays) or DNA label after HEK293 expression; purchased DiscoveRx (KINOMEscan, LeadHunter Discovery services); host or cells: T7 phage in E. coli (BL21-derived) or HEK293

[14] = molecular target: PAK7 (Homo sapiens, UniProt Q9P286)
[15] = molecular target: PFTAIRE2 (Homo sapiens, UniProt Q96Q40)
[16] = molecular target: EGFR (L861Q) (Homo sapiens, UniProt P00533, L861Q)
[17] = molecular target: MARK3 (Homo sapiens, UniProt P27448)
[18] = molecular target: EGFR (G719S) (Homo sapiens, UniProt P00533, G719S)
[19] = molecular target: FLT3 (K663Q) (Homo sapiens, UniProt P36888, K663Q)
[20] = molecular target: DAPK2 (Homo sapiens, UniProt Q9UIK4)
[21] = molecular target: MAK (Homo sapiens, UniProt P20794)
[22] = molecular target: GRK7 (Homo sapiens, UniProt Q8WTQ7)
[23] = molecular target: RSK3 Kin.Dom.1-N-terminal (Homo sapiens, UniProt Q15349)
RSK3 Kin.Dom.1-N-terminal, sequence (Q15349 59-318 limits assumed): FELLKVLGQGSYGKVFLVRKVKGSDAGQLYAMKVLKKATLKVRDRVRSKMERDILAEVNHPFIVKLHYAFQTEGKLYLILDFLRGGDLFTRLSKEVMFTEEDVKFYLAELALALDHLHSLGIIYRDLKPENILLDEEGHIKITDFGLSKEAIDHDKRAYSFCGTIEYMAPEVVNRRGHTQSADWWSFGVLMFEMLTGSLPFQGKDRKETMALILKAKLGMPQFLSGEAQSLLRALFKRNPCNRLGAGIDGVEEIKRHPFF

[24] = molecular target: EPHA1 (Homo sapiens, UniProt P21709)
[25] = molecular target: CDK2 (Homo sapiens, UniProt P24941)
[26] = molecular target: PIK3CA (E545A) (Homo sapiens, UniProt P42336, E545A)
[27] = molecular target: p38-alpha (Homo sapiens, UniProt Q16539)
[28] = molecular target: SRPK2 (Homo sapiens, UniProt P78362)
[29] = molecular target: PHKG1 (Homo sapiens, UniProt Q16816)
[30] = molecular target: ACVR2B (Homo sapiens, UniProt Q13705)
[31] = molecular target: MKK7 (Homo sapiens, UniProt O14733)
[32] = molecular target: PLK2 (Homo sapiens, UniProt Q9NYY3)
PLK2, sequence (Q9NYY3 whole entry): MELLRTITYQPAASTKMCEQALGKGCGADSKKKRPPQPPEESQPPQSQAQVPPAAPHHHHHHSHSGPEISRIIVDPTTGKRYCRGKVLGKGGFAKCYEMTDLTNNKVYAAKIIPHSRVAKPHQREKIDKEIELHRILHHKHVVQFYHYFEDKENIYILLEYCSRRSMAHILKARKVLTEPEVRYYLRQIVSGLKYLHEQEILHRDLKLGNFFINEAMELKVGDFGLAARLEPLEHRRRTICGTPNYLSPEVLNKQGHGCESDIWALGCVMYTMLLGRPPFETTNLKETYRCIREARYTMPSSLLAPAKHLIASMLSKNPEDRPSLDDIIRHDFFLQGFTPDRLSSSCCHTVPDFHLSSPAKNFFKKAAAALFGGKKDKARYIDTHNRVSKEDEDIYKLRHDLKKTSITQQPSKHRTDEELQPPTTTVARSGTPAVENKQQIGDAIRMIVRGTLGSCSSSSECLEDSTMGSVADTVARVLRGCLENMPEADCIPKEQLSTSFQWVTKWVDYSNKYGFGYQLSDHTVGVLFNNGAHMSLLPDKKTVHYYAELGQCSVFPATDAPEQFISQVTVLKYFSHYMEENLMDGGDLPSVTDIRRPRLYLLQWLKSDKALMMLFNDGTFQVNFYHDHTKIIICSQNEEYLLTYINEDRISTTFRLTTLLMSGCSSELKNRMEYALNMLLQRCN

[33] = molecular target: SRC (Homo sapiens, UniProt P12931)
SRC, sequence (P12931 whole entry): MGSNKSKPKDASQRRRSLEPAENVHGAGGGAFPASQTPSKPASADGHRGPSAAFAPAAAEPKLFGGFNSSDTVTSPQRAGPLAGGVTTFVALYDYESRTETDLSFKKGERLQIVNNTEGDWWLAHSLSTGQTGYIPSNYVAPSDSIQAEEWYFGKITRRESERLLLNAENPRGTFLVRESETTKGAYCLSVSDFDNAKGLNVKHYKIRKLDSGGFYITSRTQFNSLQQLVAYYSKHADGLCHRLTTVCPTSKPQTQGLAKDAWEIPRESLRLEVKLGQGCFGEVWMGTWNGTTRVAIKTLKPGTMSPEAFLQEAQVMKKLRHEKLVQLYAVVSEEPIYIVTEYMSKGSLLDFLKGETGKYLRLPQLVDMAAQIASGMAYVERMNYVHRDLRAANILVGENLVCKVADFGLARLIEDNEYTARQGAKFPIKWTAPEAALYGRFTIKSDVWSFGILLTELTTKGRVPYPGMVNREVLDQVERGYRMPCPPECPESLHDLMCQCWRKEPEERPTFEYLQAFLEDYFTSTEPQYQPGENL

[34] = molecular target: PRKX (Homo sapiens, UniProt P51817)
[35] = molecular target: SBK1 (Homo sapiens, UniProt Q52WX2)
[36] = molecular target: DCAMKL1 (Homo sapiens, UniProt O15075)
DCAMKL1, sequence (O15075 whole entry): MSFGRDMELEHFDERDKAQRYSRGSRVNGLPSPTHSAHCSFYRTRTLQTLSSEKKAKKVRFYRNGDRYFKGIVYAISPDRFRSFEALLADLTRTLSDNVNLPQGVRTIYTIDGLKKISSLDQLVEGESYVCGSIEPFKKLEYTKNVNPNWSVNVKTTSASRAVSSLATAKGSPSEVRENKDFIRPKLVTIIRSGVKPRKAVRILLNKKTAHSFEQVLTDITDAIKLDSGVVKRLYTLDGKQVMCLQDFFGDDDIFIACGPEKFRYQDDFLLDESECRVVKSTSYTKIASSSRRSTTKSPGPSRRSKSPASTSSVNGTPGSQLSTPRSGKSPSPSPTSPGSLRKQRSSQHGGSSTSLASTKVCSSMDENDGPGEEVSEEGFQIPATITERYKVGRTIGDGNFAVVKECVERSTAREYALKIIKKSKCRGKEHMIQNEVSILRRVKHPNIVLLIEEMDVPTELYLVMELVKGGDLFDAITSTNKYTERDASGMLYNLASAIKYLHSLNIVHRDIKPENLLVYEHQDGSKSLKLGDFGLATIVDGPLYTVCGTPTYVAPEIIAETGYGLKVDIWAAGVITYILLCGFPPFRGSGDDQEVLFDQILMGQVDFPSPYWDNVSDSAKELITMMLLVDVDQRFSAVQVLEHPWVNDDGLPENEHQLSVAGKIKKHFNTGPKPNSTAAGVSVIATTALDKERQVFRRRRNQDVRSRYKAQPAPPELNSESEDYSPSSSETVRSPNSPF

[37] = molecular target: NLK (Homo sapiens, UniProt Q9UBE8)
[38] = molecular target: GRK4 (Homo sapiens, UniProt P32298)
[39] = molecular target: CAMK2B (Homo sapiens, UniProt Q13554)
[40] = molecular target: EIF2AK1 (Homo sapiens, UniProt Q9BQI3)
[41] = molecular target: PKAC-alpha (Homo sapiens, UniProt P17612)

LCK, sequence (P06239 whole entry): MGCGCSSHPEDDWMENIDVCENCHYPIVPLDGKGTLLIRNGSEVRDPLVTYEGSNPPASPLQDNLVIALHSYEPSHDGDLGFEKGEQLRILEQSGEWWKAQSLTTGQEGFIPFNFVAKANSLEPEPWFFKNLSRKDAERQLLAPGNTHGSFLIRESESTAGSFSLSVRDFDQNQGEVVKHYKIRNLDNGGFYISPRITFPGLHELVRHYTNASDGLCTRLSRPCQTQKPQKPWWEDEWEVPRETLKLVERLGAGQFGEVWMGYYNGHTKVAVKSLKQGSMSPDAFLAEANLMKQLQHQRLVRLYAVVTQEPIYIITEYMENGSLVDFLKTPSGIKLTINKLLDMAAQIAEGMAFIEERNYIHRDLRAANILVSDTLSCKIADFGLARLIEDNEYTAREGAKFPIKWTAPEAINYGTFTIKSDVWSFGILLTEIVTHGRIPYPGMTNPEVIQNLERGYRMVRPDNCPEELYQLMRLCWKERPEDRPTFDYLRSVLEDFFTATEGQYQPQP

## Nc1ncc(-c2nc3ccccc3o2)c(-c2ccncc2)n1 [Comparative Compound 324, 5-(1,3-benzoxazol-2-yl)-4-(pyridine-4-yl)pyrimidin-2-amine]
[1]
  remaining binding at 10 µM: 88%
[2]
  remaining binding at 10 µM: 100%
[3]
  remaining binding at 10 µM: 100%
[4]
  remaining binding at 10 µM: 100%
[5]
  remaining binding at 10 µM: 83%
[6]
  remaining binding at 10 µM: 99%
[7]
  remaining binding at 10 µM: 69%
[8]
  remaining binding at 10 µM: 89%
[9]
  remaining binding at 10 µM: 72%
[10]
  remaining binding at 10 µM: 94%
[11]
  remaining binding at 10 µM: 85%
[12]
  remaining binding at 10 µM: 95%
[13]
  remaining binding at 10 µM: 100%
[14]
  remaining binding at 10 µM: 96%
[15]
  remaining binding at 10 µM: 100%
[16]
  remaining binding at 10 µM: 64%
[17]
  remaining binding at 10 µM: 100%
[18]
  remaining binding at 10 µM: 63%
[19]
  remaining binding at 10 µM: 100%
[20]
  remaining binding at 10 µM: 100%
[21]
  remaining binding at 10 µM: 86%
[22]
  remaining binding at 10 µM: 91%
[23]
  remaining binding at 10 µM: 100%
[24]
  remaining binding at 10 µM: 83%
[25]
  remaining binding at 10 µM: 100%
[26]
  remaining binding at 10 µM: 76%
[27]
  remaining binding at 10 µM: 33%
[28]
  remaining binding at 10 µM: 100%
[29]
  remaining binding at 10 µM: 100%
[30]
  remaining binding at 10 µM: 100%
[31]
  remaining binding at 10 µM: 100%
[32]
  remaining binding at 10 µM: 92%
[33]
  remaining binding at 10 µM: 84%
[34]
  remaining binding at 10 µM: 100%
[35]
  remaining binding at 10 µM: 83%
[36]
  remaining binding at 10 µM: 41%
[37]
  remaining binding at 10 µM: 41%
[38]
  remaining binding at 10 µM: 100%
[39]
  remaining binding at 10 µM: 100%
[40]
  remaining binding at 10 µM: 83%
[41]
  remaining binding at 10 µM: 91%

## CNc1c(C(N)=O)c2ccccn2c1C(=O)c1ccc(F)cc1 [Compound A, 2-methyl-amino-3-[(4-fluorophenyl)carbonyl]indolizine-1-carboxamide]
[1]
  remaining binding at 10 µM: 23%
[2]
  remaining binding at 10 µM: 100%
[3]
  remaining binding at 10 µM: 100%
[4]
  remaining binding at 10 µM: 95%
[5]
  remaining binding at 10 µM: 74%
[6]
  remaining binding at 10 µM: 100%
[7]
  remaining binding at 10 µM: 70%
[8]
  remaining binding at 10 µM: 96%
[9]
  remaining binding at 10 µM: 79%
[10]
  remaining binding at 10 µM: 79%
[11]
  remaining binding at 10 µM: 47%
[12]
  remaining binding at 10 µM: 89%
[13]
  remaining binding at 10 µM: 100%
[14]
  remaining binding at 10 µM: 96%
[15]
  remaining binding at 10 µM: 100%
[16]
  remaining binding at 10 µM: 29%
[17]
  remaining binding at 10 µM: 88%
[18]
  remaining binding at 10 µM: 24%
[19]
  remaining binding at 10 µM: 99%
[20]
  remaining binding at 10 µM: 85%
[21]
  remaining binding at 10 µM: 59%
[22]
  remaining binding at 10 µM: 65%
[23]
  remaining binding at 10 µM: 83%
[24]
  remaining binding at 10 µM: 72%
[25]
  remaining binding at 10 µM: 85%
[26]
  remaining binding at 10 µM: 73%
[27]
  remaining binding at 10 µM: 6%
[28]
  remaining binding at 10 µM: 100%
[29]
  remaining binding at 10 µM: 97%
[30]
  remaining binding at 10 µM: 100%
[31]
  remaining binding at 10 µM: 100%
[32]
  remaining binding at 10 µM: 71%
[33]
  remaining binding at 10 µM: 40%
[34]
  remaining binding at 10 µM: 100%
[35]
  remaining binding at 10 µM: 77%
[36]
  remaining binding at 10 µM: 44%
[37]
  remaining binding at 10 µM: 35%
[38]
  remaining binding at 10 µM: 97%
[39]
  remaining binding at 10 µM: 62%
[40]
  remaining binding at 10 µM: 86%
[41]
  remaining binding at 10 µM: 42%
